Experimental data reported in US9987293B2, “Method for treating chronic lymphocytic leukemia” (BIONOMICS LIMITED, priority 2014, dated 2018).

Experiments:
[1] = system: normal peripheral lymphocytes; experiment: Toxicity to normal peripheral lymphocytes (PARP cleavage, chromatin condensation, pJNK, Noxa); assay type: cell-based, human
Description: (§1) Cells were incubated for 10 min with 2 μg/mL. Hoechst 33342 at 37° C. and visualized with a fluorescent microscope. At least 200 cells were scored for each sample. The percentage of cells with condensed chromatin was recorded.
(§2) Cells were lysed in urea sample buffer [4 mol/L urea, 10% β-mercaptoethanol, 6% SDS, […] (pH 6.8), 0.01% bromphenol blue, and protease/phosphatase inhibitor cocktail] and boiled for 5 min. Proteins were subsequently separated by SDS-PAGE (10 or 15%) and transferred to polyvinylidene difluoride membrane (Millipore). Membranes were blocked with 5% nonfat milk in TBS and 0.05% Tween 20, and were probed with the appropriate primary antibody overnight. Subsequently, membranes were washed in […] and 0.05% Tween 20, and then incubated with secondary antibody conjugated to horseradish peroxidase. Proteins were visualized by enhanced chemiluminescence (Amersham). Actin was used as a loading control in Western blots.
To test the potential toxicity of EX2, normal peripheral lymphocytes were isolated from a healthy volunteer and incubated with EX2 alone or in combination with ABT-199.

CLL cells on L4.5 stroma = experiment: Apoptosis of CLL cells co-incubated on CD154+ L4.5 stroma; assay type: cell-based, human; conditions: for sensitivity of stroma co-incubated CLL cells: co-incubation on stroma for 24 h
Description: (§3) CLL cells were obtained from consented patients at the Norris Cotton Cancer Center. Cells were purified by centrifugation in Ficoll-Paque PLUS from 10 ml, of blood. Lymphocytes were plated in RPMI 1640 plus 10% serum at 1×10^6 cells/mL after three washes in PBS+2 mmol/L EDTA. Cells were either incubated immediately with reagents or after 24 h incubation with confluent layers of CD154+ stromal cells (L 4.5) at a ratio of 5:1.
as §1
The experiments above have shown that CLL cells are usually very sensitive to EX2. However, these cells were isolated from peripheral blood, and the real problem to curing CLL is to be able to kill cells that reside in the lymph node or […] marrow niche. To mimic this niche, we have used L4.5 cells that express CD154. […] However, when ABT-199 and EX2 were combined, marked apoptosis was again observed. For example, 100 nM ABT-199 alone induced about 10% apoptosis, whereas when combined with 1 μM EX2, >60% apoptosis was observed within 6 h. The combination of 1 μM EX2 and 1 μM ABT-199 induced about 80% apoptosis. This patient's cells appeared to be more resistant than those summarized in FIG. 2 which may therefore understate the impact of this combination. In cells from another patient that were more sensitive to EX2 alone we observed greater sensitization to ABT-199; these cells were not tested on stroma.

CLL cells [2] = experiment: Immunoblot of PARP cleavage, pJNK and Noxa in CLL cells; assay type: cell-based, human
Description: as §3, §2
(§4) To determine whether EX2 induces apoptosis, freshly isolated CLL cells were incubated in media containing 0-1 μM EX2. Chromatin condensation was scored as a classic marker of apoptosis. Apoptosis was observed following incubation of cells with 10-100 nM EX2 and this also correlated with the cleavage of PARP (FIG. 1). Protein lysates were also assessed for both pJNK and NOXA, both of which were increased by the same concentrations of EX2.

CLL cells [3] = experiment: Chromatin condensation (Hoechst 33342) apoptosis in freshly isolated CLL cells; assay type: cell-based, human; conditions: 6 h
Description: as §3, §1, §4

Jeko-1 cells = experiment: Kinetics of apoptosis in Jeko-1 cells (Western blot); assay type: cell-based; conditions: Jeko-1 cells (FIG. 7)
Description: as §2
It was noted that in many of these experiments, PARP cleavage was incomplete at 6 h. To determine whether greater apoptosis occurred at later time points, we incubated cells for up to 24 h with EX2 (FIG. 6).

CC1(C)CCC(CN2CCN(c3ccc(C(=O)NS(=O)(=O)c4ccc(NCC5CCOCC5)c([N+](=O)[O-])c4)c(Oc4cnc5[nH]ccc5c4)c3)CC2)=C(c2ccc(Cl)cc2)C1 [ABT-199, reference compound]
PARP cleavage in normal lymphocytes ([1]; healthy volunteer cells, ABT-199 alone): slight PARP cleavage | chromatin condensation in normal lymphocytes ([1]; healthy volunteer cells, ABT-199 with or without EX2): no chromatin condensation was observed | apoptosis, 100 nM alone (CLL cells on L4.5 stroma; CLL cells on stroma, 100 nM ABT-199 alone): about 10% | sensitivity of stroma co-incubated CLL cells (CLL cells on L4.5 stroma): marked resistance

CCc1cnn2c(NCc3ccc[n+]([O-])c3)cc(N3CCCC[C@H]3CCO)nc12 [Dinaciclib, reference compound]
apoptosis in normal leukocytes ([1]; healthy volunteer cells, dinaciclib alone): induced some apoptosis

COc1cc(C(=O)c2c(C)oc3c(OP(=O)([O-])[O-])c(OC)ccc23)cc(OC)c1OC.[Na+].[Na+] [EX2, Disodium 6-methoxy-2-methyl-3-(3,4,5-trimethoxybenzoyl)benzofuran-7-yl phosphate]
time to activation of JNK (CLL cells [2]; CLL cells): less than one | PARP cleavage over time (CLL cells [2]; CLL cells incubated up to 24 h (FIG. 6), by 24 h): almost total cleavage of PARP | PARP cleavage in presence of JNK inhibitor VIII (CLL cells [2]; CLL cells, 0-1 μM EX2 with JNK inhibitor VIII): completely prevented | lowest concentration at which apoptosis began to appear (CLL cells [2]; CLL cells, 6 h, FIG. 2A, pJNK and Noxa correlated): 5 nM | JNK activation and PARP cleavage after 1 h pulse treatment (CLL cells [2]; CLL cells, five hours after removing EX2, versus continuous incubation): still observed albeit slightly less | pJNK and NOXA levels (CLL cells [2]; protein lysates of CLL cells, same concentrations (10-100 nM)): increased | concentration at which apoptosis (chromatin condensation) was observed (CLL cells [3]; freshly isolated CLL cells, 0-1 μM, correlated with PARP cleavage): 10 to 100 nM | relative potency as inducer of apoptosis (CLL cells [3]; versus vinblastine and combretastatin A4, chromatin condensation and PARP cleavage): more potent inducer of apoptosis | effect of EX2 on ABT-199-induced PARP cleavage in normal lymphocytes ([1]; EX2 combined with ABT-199): not increased | effect of EX2 on dinaciclib-induced apoptosis in normal leukocytes ([1]; EX2 combined with dinaciclib): not increased | Noxa induction in normal lymphocytes ([1]; healthy volunteer cells): no Noxa was induced | pJNK in normal lymphocytes ([1]; healthy volunteer cells): activated | PARP cleavage or chromatin condensation in normal lymphocytes ([1]; healthy volunteer cells, single agent, 6 h): no significant PARP cleavage or chromatin condensation | apoptosis, single agent at 1 μM (CLL cells on L4.5 stroma; CLL cells co-cultured on L4.5 stroma 24 h, 1 μM): no apoptosis observed | apoptosis, combination of 1 μM EX2 and 1 μM ABT-199 (CLL cells on L4.5 stroma; CLL cells on stroma): about 80% | apoptosis, 1 μM EX2 combined with 100 nM ABT-199 (CLL cells on L4.5 stroma; CLL cells on stroma, within 6 h): > 60% | sensitivity of stroma co-incubated CLL cells (CLL cells on L4.5 stroma): markedly resistant | time by which apoptosis was complete (Jeko-1 cells): up to 24 h
